{"source": "patent US20120004282A1", "about": "“RNA Interference Mediated Inhibition of the Intercellular Adhesion Molecule 1 (ICAM-1) Gene Expression Using Short Interfering Nucleic Acid (siNA)” (Merck Sharp & Dohme Corp,, priority 2009, published 2012)", "note": "[invAb] = inverted abasic unit; m = 2'-O-methyl; r = 2'-OH (RNA); f = 2'-fluoro"}
{"system": "ICAM-1 mRNA", "test": "ICAM-1 mRNA knock-down in transfected Calu-1 cells (Taqman RT-PCR)", "assay_type": "cell-based, human", "settings": "Calu-1 cells, 10 nM siNA, 24 hrs post-transfection, mean ± S.D., relative to non-targeting control", "procedure": "Calu-1 (human; ATCC cat# HTB-54): Cells were cultured at 37° C. in the presence of 5% CO2 and grown in McCoy's 5a medium supplemented with fetal bovine serum at a final concentration of 10% and 100 μg/mL of streptomycin and 100 U/mL penicillin.\nAll transfections were performed using RNAiMax (Invitrogen Cat# 13778-150) as per the manufacturer's instructions.\nCalu-1 cells were plated in all wells of a tissue-culture treated, 96-well plate at final counts of 5,000 cells/well in 100 μL of appropriate culture media. Cells were cultured for 24 hours after plating at 37° C. in the presence of 5% CO2.\nAfter 24 hours, complexes containing siNA and RNAiMax were created as follows. A solution of RNAiMax diluted 33-fold in OPTI-MEM was prepared. In parallel, solutions of the siNAs for testing were prepared to a final concentration of 120 nM in OPTI-MEM. After incubation of RNAiMax/OPTI-MEM solution at room temperature for 5 min, an equal volume of the siNA solution and the RNAiMax solution were added together for each of the siNAs. […] This solution was incubated at room temperature for 20 minutes. After incubation, 20 uL of the solution was added to each of the relevant wells. The final concentration of siNA in each well was 10 nM and the final volume of RNAiMax in each well was 0.3 uL.\nThe time of incubation with the RNAiMax-siNA complexes was 24 hours, unless otherwise indicated. There was no change in media between the transfection and harvesting of the cells unless otherwise indicated.\nDose response curves were carried out in a similar fashion in 96-well plates, while maintaining a constant amount of RNAiMax in each transfection.\nRNA was extracted from a 96-well plate using the TaqMan® Gene Expression Cells-to-CT™ Kit (Cat# 4399002) with a modified protocol. Briefly, a 60 uL (1 plate) or 110 uL (2 plates) of the Lysis Solution with DNase I was dispensed into each well of the Lysis Buffer Plate (twin.tec full skirt plate). The lysis buffer and stop plates were stored at 4° C. until the cells were washed.\nThe plate was spun at 1100 rpm for 5 minutes. The culture medium was aspirated and discarded from the wells of the culture plate. The lysis was performed automatically using a BioMek FX instrument and method. After the Biomek method was completed, the lysis plate was incubated for 2 min. at room temperature. The lysis plate can be stored for 2 hours at 4° C., or at −20° C. or −80° C. for two months.\nEach well of the reverse transcription plate required 10 uL of 2× reverse transcriptase Buffer, 1 uL of 20× reverse transcription enzyme and 2 uL of nuclease-free water. The reverse transcription master mix was prepared by mixing 2× reverse transcription buffer, 20× reverse transcription enzyme mix, and nuclease-free water. 13 uL of the reverse transcription master mix was dispensed into each well of the reverse transcription plate (semi-skirted). A separate reverse transcription plate was prepared for each cell plate. The plate was loaded onto a Biomek NX or Biomek FX Dual-96 and the Biomek method was run. The program is programmed to automatically added 7 uL of lysate from the cell lysis procedure described above into each well of the reverse transcription plate. The plate is sealed and spun on a centrifuge (1000 rpm for 30 seconds) to settle the contents to the bottom of the reverse transcription plate. The plate is placed in a thermocycler at 37° C. for 60 min, 95° C. for 5 min, and 4° C. until the plate is removed from the thermocycler. Upon removal, if not used immediately, the plate was frozen at −20° C.\nA series of probes and primers were used to detect the various mRNA transcripts of the genes of ICAM-1 and ICAM-2 in human cell lines (see Table 2). All the Taqman probes and primers for the experiments here-in described were supplied as pre-validated sets by Applied Biosystems, Inc., (see Table 2). The assays were performed on an ABI 7900 instrument, according to the manufacturer's instructions. […]", "units": {"% KD Human": "%"}}
{"substance": "48699-DC: siNA duplex, ICAM-1 target site 668 (m); sense B GcuGGcAuuGuucucuAAu TTB; antisense AUUAGAGAAcAAuGccAGcUU (sense GCUGGCAUUGUUCUCUAAUTT; antisense AUUAGAGAACAAUGCCAGCUU; sense: DNA at AGT, 2'-fluoro at CU, [invAb] at 5' end, 3' end, backbone not given here; antisense: sugars from the 5' end rrrmmmmmmfmmfmffmmfmm, backbone not given here)", "% KD Human": "25 ± 9"}
{"substance": "48701-DC: siNA duplex, ICAM-1 target site 1505 (m); sense B AGuAcuGuAccAcucucAA TTB; antisense UUGAGAGuGGuAcAGuAcuUU (sense AGUACUGUACCACUCUCAATT; antisense UUGAGAGUGGUACAGUACUUU; sense: DNA at AGT, 2'-fluoro at CU, [invAb] at 5' end, 3' end, backbone not given here; antisense: sugars from the 5' end rrrmmmmfmmfmfmmfmffmm, backbone not given here)", "% KD Human": "3 ± 17"}
{"substance": "29283-DC: siNA duplex, ICAM-1 target site 1811 (h); sense B cucAGcAcGuAccucuAuA TTB; antisense UAUAGAGGuAcGuGcuGAGUU (sense CUCAGCACGUACCUCUAUATT; antisense UAUAGAGGUACGUGCUGAGUU; sense: DNA at AGT, 2'-fluoro at CU, [invAb] at 5' end, 3' end, backbone not given here; antisense: sugars from the 5' end rrrmmmmmfmfmfmffmmmmm, backbone not given here)", "% KD Human": "63 ± 8"}
{"substance": "29281-DC: siNA duplex, ICAM-1 target site 1650 (h); sense B cAGuGAcuGucAcucGAGA TTB; antisense UCUcGAGuGAcAGucAcuGUU (sense CAGUGACUGUCACUCGAGATT; antisense UCUCGAGUGACAGUCACUGUU; sense: DNA at AGT, 2'-fluoro at CU, [invAb] at 5' end, 3' end, backbone not given here; antisense: sugars from the 5' end rrrfmmmfmmfmmffmffmmm, backbone not given here)", "% KD Human": "45 ± 21"}
{"substance": "48698-DC: siNA duplex, ICAM-1 target site 1611 (m); sense B AGAAAGAucAGGAuAuAcA TTB; antisense UGUAuAuccuGAucuuucuUU (sense AGAAAGAUCAGGAUAUACATT; antisense UGUAUAUCCUGAUCUUUCUUU; sense: DNA at AGT, 2'-fluoro at CU, [invAb] at 5' end, 3' end, backbone not given here; antisense: sugars from the 5' end rrrmfmffffmmfffffffmm, backbone not given here)", "% KD Human": "34 ± 6"}
{"substance": "48697-DC: siNA duplex, ICAM-1 target site 1641 (m); sense B GcucAGGAGGAGGccAuAA TTB; antisense UUAuGGccuccuccuGAGcUU (sense GCUCAGGAGGAGGCCAUAATT; antisense UUAUGGCCUCCUCCUGAGCUU; sense: DNA at AGT, 2'-fluoro at CU, [invAb] at 5' end, 3' end, backbone not given here; antisense: sugars from the 5' end rrrfmmfffffffffmmmfmm, backbone not given here)", "% KD Human": "14 ± 11"}
{"substance": "48719-DC: siNA duplex, ICAM-1 target site 1230 (h); sense B cAGuGAccAucuAcAGcuu TTB; antisense AAGcuGuAGAuGGucAcuGUU (sense CAGUGACCAUCUACAGCUUTT; antisense AAGCUGUAGAUGGUCACUGUU; sense: DNA at AGT, 2'-fluoro at CU, [invAb] at 5' end, 3' end, backbone not given here; antisense: sugars from the 5' end rrrffmfmmmfmmffmffmmm, backbone not given here)", "% KD Human": "71 ± 9"}
